The values below come from article PMC8708424, “Pharmacologically Targeting the Fibroblast Growth Factor 14 Interaction Site on the Voltage-Gated Na^+ Channel 1.6 Enables Isoform-Selective Modulation” (International Journal of Molecular Sciences, 2021).

Where a SMILES comes first, the peptide text is derived from it. The star is where a group is joined. Fmoc = O=C(OCC1c2ccccc2-c2ccccc21)*; tBu = CC(C)(C)*

Usually IC50 stands for the concentration that gives 50% inhibition. A high value points to a need for much substance.

The target in the test is T1, voltage-gated Na+ channel 1.6 (Nav1.6) (Homo sapiens, UniProt Q9UQD0).
T1 construct: gene SCN8A; hNav1.6 channel stably expressed in HEK293 cells
T1 sequence (Q9UQD0 whole entry): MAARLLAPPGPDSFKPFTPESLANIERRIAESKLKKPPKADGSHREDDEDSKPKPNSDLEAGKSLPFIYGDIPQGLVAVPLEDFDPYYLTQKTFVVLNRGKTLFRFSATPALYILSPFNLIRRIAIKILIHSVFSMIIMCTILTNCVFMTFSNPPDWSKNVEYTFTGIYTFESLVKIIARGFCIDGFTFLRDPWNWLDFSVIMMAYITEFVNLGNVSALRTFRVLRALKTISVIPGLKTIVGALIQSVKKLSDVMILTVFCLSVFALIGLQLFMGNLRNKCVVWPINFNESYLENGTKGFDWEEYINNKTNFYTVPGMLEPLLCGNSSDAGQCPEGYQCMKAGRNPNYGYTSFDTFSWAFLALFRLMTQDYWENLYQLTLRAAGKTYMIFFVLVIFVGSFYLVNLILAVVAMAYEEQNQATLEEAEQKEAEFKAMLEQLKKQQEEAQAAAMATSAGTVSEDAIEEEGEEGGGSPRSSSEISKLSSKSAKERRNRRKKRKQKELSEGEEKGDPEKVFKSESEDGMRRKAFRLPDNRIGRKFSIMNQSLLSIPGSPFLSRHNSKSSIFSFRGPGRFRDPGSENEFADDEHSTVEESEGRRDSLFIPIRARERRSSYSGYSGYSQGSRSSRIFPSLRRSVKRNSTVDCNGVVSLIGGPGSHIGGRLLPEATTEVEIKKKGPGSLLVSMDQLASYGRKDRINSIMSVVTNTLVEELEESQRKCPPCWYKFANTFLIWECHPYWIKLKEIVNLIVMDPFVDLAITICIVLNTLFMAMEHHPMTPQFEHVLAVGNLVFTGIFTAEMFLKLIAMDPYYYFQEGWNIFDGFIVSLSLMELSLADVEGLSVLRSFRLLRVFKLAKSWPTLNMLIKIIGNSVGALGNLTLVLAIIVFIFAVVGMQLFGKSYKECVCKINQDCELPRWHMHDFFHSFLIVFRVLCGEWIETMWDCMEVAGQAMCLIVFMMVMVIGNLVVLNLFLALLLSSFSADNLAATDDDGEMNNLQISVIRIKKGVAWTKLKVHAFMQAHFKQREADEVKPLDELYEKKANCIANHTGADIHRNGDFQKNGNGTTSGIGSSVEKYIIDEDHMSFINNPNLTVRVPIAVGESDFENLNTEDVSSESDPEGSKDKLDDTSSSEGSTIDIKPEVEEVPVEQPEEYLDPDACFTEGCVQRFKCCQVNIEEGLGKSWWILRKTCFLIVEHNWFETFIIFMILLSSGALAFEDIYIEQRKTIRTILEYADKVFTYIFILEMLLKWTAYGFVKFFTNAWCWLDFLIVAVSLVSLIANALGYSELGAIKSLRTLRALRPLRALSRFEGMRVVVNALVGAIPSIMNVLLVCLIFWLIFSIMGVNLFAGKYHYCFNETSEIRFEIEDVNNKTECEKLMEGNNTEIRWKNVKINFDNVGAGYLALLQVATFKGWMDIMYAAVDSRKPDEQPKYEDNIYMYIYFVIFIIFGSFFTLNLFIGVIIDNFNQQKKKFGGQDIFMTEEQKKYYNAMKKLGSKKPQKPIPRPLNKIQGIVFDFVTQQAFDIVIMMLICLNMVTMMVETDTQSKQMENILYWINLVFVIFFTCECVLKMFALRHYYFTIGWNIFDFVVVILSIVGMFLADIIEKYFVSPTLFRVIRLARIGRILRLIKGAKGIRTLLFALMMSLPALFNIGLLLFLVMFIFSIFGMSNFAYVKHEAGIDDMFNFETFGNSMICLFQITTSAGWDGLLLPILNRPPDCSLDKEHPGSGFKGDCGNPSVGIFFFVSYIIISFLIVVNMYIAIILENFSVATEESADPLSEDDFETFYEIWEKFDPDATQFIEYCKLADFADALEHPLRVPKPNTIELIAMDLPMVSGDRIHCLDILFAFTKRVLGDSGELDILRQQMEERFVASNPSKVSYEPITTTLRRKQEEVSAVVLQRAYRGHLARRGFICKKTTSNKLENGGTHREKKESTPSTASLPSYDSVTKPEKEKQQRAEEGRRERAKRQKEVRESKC
Briefly: whole-cell voltage-clamp electrophysiology in HEK-Nav1.[…] cells, peak transient INa dose-response. The format is cell-based.

Take `CC(C)[C@H](NC(=O)[C@H](Cc1ccc(OC(C)(C)C)cc1)NC(=O)[C@H](Cc1ccc(OC(C)(C)C)cc1)NC(=O)OCC1c2ccccc2-c2ccccc21)C(N)=O` [PW201] (Fmoc-Tyr(tBu)-Tyr(tBu)-Val-NH2): it took 15.1 µM to reach half-maximal inhibition (IC50).
